Data from publication PMC6949113, “Preclinical evaluation of AT-527, a novel guanosine nucleotide prodrug with potent, pan-genotypic activity against hepatitis C virus” (PLoS ONE, 2020).
Several values for one entry are separate records, joined by “and”; a condition that tells them apart may be missing. Equal entries are not always repeated. Marks after values point to notes of the source that are not given here.

Legend:
[1] = Monkey PK study, liver and heart tissue levels; type: in vivo, cynomolgus monkey; settings: monkey; for Mean Concentration at 4 hr Postdose, Heart: footnoted values extrapolated below LLOQ
Text: Monkey PK study. Male non-naïve cynomolgus monkeys were obtained from Hainan Jingang Laboratory Animal Co., Ltd. (Hainan, China), group housed during the 5-day acclimation period or individually housed during the study in stainless steel mesh cages, provided ad libitum access to RO water, fed twice daily (~120 g Certified Monkey Diet daily; Beijing Vital Keao Feed Co., Ltd., Beijing, China) and given daily treats of fresh fruit. Additional environmental enrichment included classical music and cartoons. Three groups of 5 monkeys each were administered 30, 100 or 300 mg/kg AT-527 as a powder filled in empty porcine hard gelatin capsules (size 0). The monkeys were fasted overnight prior to dosing and fed 4 h after dosing. Three dosages were selected to provide assessments of dose proportionality, the top two representing potential doses for a repeated oral dose toxicity study in monkeys, and the lowest predicted to be more therapeutically relevant. A pill gun was used to place the capsule beyond the root of the animals’ tongues and their mouths were held loosely closed for approximately 30 sec to allow them to move the jaw and swallow the capsule. Immediately following capsule administration, 20 mL of water was given by mouth and then the mouth was opened to ensure the capsule was swallowed. Blood samples (~0.6 mL) were collected up to 72 h from three animals per dose group, and up to 4 h from the remaining two animals in each group, at the same time points described for rats. […] Blood samples were collected with a syringe from a peripheral blood vessel from restrained, non-sedated animals, immediately transferred to pre-chilled tubes containing ~1 mg K2EDTA•2H20 and 20 μL of 5 mM dichlorvos solution, mixed and placed on ice until plasma was prepared by centrifugation as described for rats. Immediately after centrifugation, plasma samples were extracted with 4 volumes ISS2, and the supernatants were clarified by centrifugation (12,000 rpm, 10 min, 4°C) and stored at ≤ -60°C until analyzed by LC-MS/MS as described below. After the 4-hr blood collection, two monkeys per dose group were anesthetized with intravenous injection of pentobarbital sodium (60 mg/kg) and then euthanized as described for rats. […] All analytes were quantitated by LC-MS/MS as described below.
For the analysis of AT-9010 in rat tissue homogenate supernatant, aliquots were diluted 1:2 with water and injected onto an Agilent Zorbax Extend C18 5 μm, 2.1 × 50 mm column and a Sciex API 4000 mass spectrometer (ESI positive ion, MRM mode). Mobile phases A (0.001% ammonia and 0.18 mM DBAA in water (1:1, v/v) and B (10 mM dimethylhexylamine (DMHA) and 3 mM AA in 50% ACN in water) were used to elute samples (60 μL) at 0.7 mL/min with 2% B for 0.8 min followed by a linear gradient to 30% B over 0.4 min, isocratic elution at 30% B for 0.4 min, a linear gradient to 95% B over 0.4 min, and ending with 95% B for 0.4 min. The analysis of AT-9010 in monkey tissue homogenate supernatant was the same except the sample injection volume was 20 μL. Attempts to measure tissue levels of other potentially formed TPs, including 2,6-diaminopurine-2’-F-2’-C-methylribosyl-5’-triphosphate and 2-amino-6-methylaminopurine-2’-F-2’-C-methylribosyl-5’-triphosphate (M2-TP), also used this method.
For the analysis of M2 and M3 in monkey tissue homogenate supernatant, aliquots were diluted 1:3 with water and injected onto an Acuity HSS T3 1.8 μm, 2.1 × 50 mm column and a Sciex API 6500 mass spectrometer (ESI positive ion, MRM mode). Mobile phases A (0.3% FA and 10 mM AA in water and B (0.3% FA and 10 mM AA in 95% ACN in water) were used to elute samples (1 μL) at 0.6 mL/min with 0% B for 0.4 min followed by linear gradients to 30% B over 0.5 min and to 95% B over 0.2 min, ending with isocratic elution at 95% B for 0.4 min.

[2] = Intracellular metabolism in dog hepatocytes; type: in vitro ADME, Beagle dog
Experimental: (§1) Hepatocytes. […] Cryopreserved male mouse (CD1), and fresh male Beagle dog and male cynomolgus monkey hepatocytes were obtained from BioreclamationIVT (Baltimore, MD) and were similarly plated with Matrigel in 6- or 24-well plates and maintained overnight in InVitroGRO™HI medium with Torpedo™ antibiotic (BioreclamationIVT). The protocol described above for measuring AT-511 and its metabolites in Huh-7 cells was repeated with the five different hepatocytes. Untreated cells were collected at 24 h, and the protein content of the cell lysates were determined using a bicinchoninic acid protein assay kit to assess the number of cells in each incubation. Separately, plated human hepatocytes were incubated for 6 h with 100 μM AT-511, followed by washout periods of 0, 2, 6, 18 and 30 h.
(§2) S3 Protocol. LC-MS/MS analysis of AT-511 and metabolites in cultured cells. The supernatant extracts of each hepatocyte and Huh-7 cell incubation were separately analyzed by four different LC-MS/MS methods for quantitation of phosphoramidates, nucleosides, monophosphates, and triphosphates (methods 1, 2, 3 and 4, respectively), using synthetic reference standards of actually and potentially present compounds and using structurally related analogs as internal standards. Briefly, a Luna PFP (2), 5 µm, 100 x 4.6 mm column and an AB Sciex API-6500 mass spectrometer (ESI positive ion, MRM mode) were used for methods 1-3 and an XBridge Oligonucleotide, BEH C18, 2.5 µm, 50 x 2.1 mm column and a Thermo QE Plus mass spectrometer (electrospray, negative ion mode) were used for method 4. For methods 1 and 2, mobile phases A (10 mM ammonium acetate in water) and B (acetonitrile:methanol, 1:1, v/v) were used to elute samples (5 µL) at 1 mL/min with 15% B for 1.5 min followed by a linear gradient to 75% B over 1 min (method 1) or with 54% B for 1.3 min followed by a linear gradient to 90% B over 1.2 min. Method 3 was the same except mobile phase A was 0.3% acetic acid in water, […] and samples were eluted with 3% B for 3 min followed by a linear gradient to 55% B over 1.2 min. For method 4, mobile phase A (3 mM ammonium formate with 10 mM dimethylhexylamine (DMHA) in water) and mobile phase B (3 mM ammonium formate with 10 mM DMHA in acetonitrile:water, 1:1, v/v) were used to elute samples at 0.4 mL/min with 0% B for 1.5 min followed by a linear gradient to 100% B over 2 min and ending with an isocratic elution for 0.5 min at 100% B.

[3] = Intracellular metabolism in mouse hepatocytes; type: in vitro ADME, mouse (CD1)
Experimental: as §1, §2

[4] = molecular target: human mitochondrial RNA polymerase (POLRMT) (Homo sapiens, UniProt O00411); experiment: POLRMT nucleotide incorporation assay; type: biochemical
[5] = Intracellular metabolism in human hepatocytes; type: in vitro ADME; settings: human hepatocytes
Experimental: as §1, §2

Chain of human mitochondrial RNA polymerase (POLRMT) (O00411 42-1230): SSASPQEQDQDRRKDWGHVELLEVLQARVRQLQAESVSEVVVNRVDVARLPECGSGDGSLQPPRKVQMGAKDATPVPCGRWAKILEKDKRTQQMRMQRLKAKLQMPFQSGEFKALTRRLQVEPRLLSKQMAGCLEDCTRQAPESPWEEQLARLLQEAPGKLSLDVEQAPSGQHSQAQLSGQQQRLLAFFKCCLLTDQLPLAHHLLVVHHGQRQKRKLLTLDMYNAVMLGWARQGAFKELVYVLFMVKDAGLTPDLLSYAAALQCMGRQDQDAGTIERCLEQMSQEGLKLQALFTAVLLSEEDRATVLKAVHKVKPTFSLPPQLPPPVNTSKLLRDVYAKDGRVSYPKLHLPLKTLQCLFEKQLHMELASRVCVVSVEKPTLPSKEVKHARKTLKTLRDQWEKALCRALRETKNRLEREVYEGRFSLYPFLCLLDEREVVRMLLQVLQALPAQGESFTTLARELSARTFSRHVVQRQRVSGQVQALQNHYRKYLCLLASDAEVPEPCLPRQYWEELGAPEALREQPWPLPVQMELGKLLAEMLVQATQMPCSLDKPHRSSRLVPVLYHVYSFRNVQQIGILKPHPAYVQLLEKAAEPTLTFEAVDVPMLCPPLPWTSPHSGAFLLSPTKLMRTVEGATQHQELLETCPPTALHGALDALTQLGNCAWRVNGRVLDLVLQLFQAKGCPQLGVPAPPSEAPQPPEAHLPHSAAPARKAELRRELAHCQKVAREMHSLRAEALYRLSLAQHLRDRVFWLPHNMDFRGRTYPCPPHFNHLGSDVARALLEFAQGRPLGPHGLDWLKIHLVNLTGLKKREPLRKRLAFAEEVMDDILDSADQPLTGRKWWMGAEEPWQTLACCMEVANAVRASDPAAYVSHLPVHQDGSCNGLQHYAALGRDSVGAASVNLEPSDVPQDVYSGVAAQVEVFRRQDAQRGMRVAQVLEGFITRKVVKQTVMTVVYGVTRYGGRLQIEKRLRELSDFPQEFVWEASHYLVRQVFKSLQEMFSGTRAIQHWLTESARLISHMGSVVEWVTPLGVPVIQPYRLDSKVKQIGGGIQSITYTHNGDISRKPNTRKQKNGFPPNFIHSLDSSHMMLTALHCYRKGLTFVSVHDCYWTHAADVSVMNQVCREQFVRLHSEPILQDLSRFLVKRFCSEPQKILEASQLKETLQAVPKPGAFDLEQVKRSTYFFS

C[C@@]1(F)[C@H](O)[C@@H](COP(=O)(O)OP(=O)(O)OP(=O)(O)O)O[C@H]1n1cnc2c(=O)[nH]c(N)nc21 [AT-9010]
fold higher mean liver concentration than parent phosphoramidate ([1]; 30 mg/kg, 4 h): 34 fold
Mean Concentration at 4 hr Postdose, Liver ([1]; AT-527 30 mg/kg oral): 545 ± 349 pmol/g and 545 pmol/g
Liver/Heart Ratio ([1]; AT-527 30 mg/kg oral, 4 h): 11^b
Mean Concentration at 4 hr Postdose, Heart ([1]; AT-527 30 mg/kg oral): 51.2^b pmol/g
Mean Concentration at 4 hr Postdose, Liver ([1]; AT-527 100 mg/kg oral): 1890 ± 519 pmol/g and 1890 pmol/g
Liver/Heart Ratio ([1]; AT-527 100 mg/kg oral, 4 h): 31^b
Mean Concentration at 4 hr Postdose, Heart ([1]; AT-527 100 mg/kg oral): 61.8^b pmol/g
Mean Concentration at 4 hr Postdose, Liver ([1]; AT-527 300 mg/kg oral): 968 pmol/g
Mean Concentration at 4 hr Postdose, Heart ([1]; AT-527 300 mg/kg oral): 55.3^b pmol/g
AUC0-24, intracellular ([2]; 10 μM AT-511): 229 pmol*h/10^6 cells
Cmax, intracellular ([2]; 10 μM AT-511, 0-24 h): 15.4 ± 6.6 pmol/10^6 cells
AUC0-24, intracellular ([3]; 10 μM AT-511): 1177 pmol*h/10^6 cells
Cmax, intracellular ([3]; 10 μM AT-511, 0-24 h): 85.4 ± 0.4 pmol/10^6 cells
Relative efficiency ([4]; (kpol/Kd,app)incorrect/(kpol/Kd,app)correct): 2.2 x 10^−6
Kd ([4]; POLRMT-catalyzed nucleotide incorporation, read-out: Kd,app): 204 ± 94 µM
kpol/Kd, app ([4]; efficiency of incorporation): 8.3 ± 4.0 x 10^−6 μM^-1s^-1
AUC0-24, intracellular ([5]; 10 μM AT-511): 1363 pmol*h/10^6 cells
Cmax, intracellular ([5]; 10 μM AT-511, 0-24 h): 69.2 ± 8.8 pmol/10^6 cells

C[C@@]1(F)[C@H](O)[C@@H](CO)O[C@H]1n1cnc2c(=O)[nH]c(N)nc21 [AT-273]
Mean Concentration at 4 hr Postdose, Liver ([1]; AT-527 30 mg/kg oral): 267 pmol/g
Liver/Heart Ratio ([1]; AT-527 30 mg/kg oral, 4 h): 3.0
Mean Concentration at 4 hr Postdose, Heart ([1]; AT-527 30 mg/kg oral): 88.5 pmol/g
Mean Concentration at 4 hr Postdose, Liver ([1]; AT-527 100 mg/kg oral): 672 pmol/g
Liver/Heart Ratio ([1]; AT-527 100 mg/kg oral, 4 h): 2.9
Mean Concentration at 4 hr Postdose, Heart ([1]; AT-527 100 mg/kg oral): 229 pmol/g
Mean Concentration at 4 hr Postdose, Liver ([1]; AT-527 300 mg/kg oral): 939 pmol/g
Liver/Heart Ratio ([1]; AT-527 300 mg/kg oral, 4 h): 2.1
Mean Concentration at 4 hr Postdose, Heart ([1]; AT-527 300 mg/kg oral): 444 pmol/g
intracellular levels of nucleoside metabolites ([2]; low to undetectable): < 10 pmol/10^6 cells
intracellular levels of nucleoside metabolites ([3]; low to undetectable): < 10 pmol/10^6 cells
intracellular levels of nucleoside metabolites ([5]; low to undetectable): < 10 pmol/10^6 cells
